Assay results published in US20140235617A1, “Combinations of Hepatitis C Virus Inhibitors” (BRISTOL-MYERS SQUIBB COMPANY, priority 2010, published 2014).
Several values for one entry are separate records, joined by “and”; a condition that tells them apart may be missing. Identical values can stand only once. Like-named read-outs stand apart in the source and are kept apart here.

Tested on: genotype Ib HCV replicon
Experiment: HCV replicon luciferase assay, monotherapy and triple combination studies
Type: cell-based
Details: monotherapy, 3 days, Expt 1-3
From the text: The HCV replicons used in these studies were generated at Bristol-Myers Squibb using the procedure described in WO2004014852. […] The functional replicon was then assembled in plasmid pGem9zf(+) (Promega, Madison, Wis.) using standard molecular biology techniques. To create a replicon encoding a luciferase reporter, the gene encoding humanized Renilla Luciferase protein was introduced upstream of the neomycin phosphotransferase gene.
HCV replicon cell lines were isolated from colonies as described by Lohman, et. al (Lohmann, V., F. Korner, J.-O. Koch, U. Herian, L. Theilmann, and R. Bartenschlager 1999, Science 285:110-113) and used for all experiments. Briefly, replicon clones were linearized with ScaI and RNA transcripts synthesized in vitro using the T7 MegaScript transcription kit (Ambion, Austin, Tex.) according to manufacturer's directions. […] After 24 h, selective media containing 0.5 mg/mL Geneticin (G418, Gibco-BRL, Rockville, Md.) was added and media was changed every 3 to 5 days. After approximately 4 weeks, cells were expanded for further analysis. Cells were maintained at 37° C. in DMEM (Gibco-BRL, Rockville, Md.) with 10% heat inactivated calf serum (Sigma), penicillin/streptomycin, and 0.5 mg/ml G418.
To determine compound efficacy, HCV replicon cells were plated at a density of 10^4 per well in 96-well plates in DMEM media containing 10% FBS. Following incubation overnight, compounds serially diluted in DMSO, or DMSO alone, were added to individual wells to a final DMSO concentration of 0.5%. Cell plates were then incubated at 37° C. for 3 days prior to assaying for cytotoxicity and HCV inhibition.
Plates were then washed two times with PBS and renilla luciferase activity assayed using a Dual-Glo Luciferase Assay System (Promega Corporation, Madison, Wis.) according to the manufacturer's directions. Plates were read on a TopCount NXT Microplate Scintillation and Luminescence Counter (Packard Instrument Company). The 50% effective concentration (EC50) was calculated by using Excel Fit (Version 2.0, Build 30).
Stock solutions, 200 times the desired final assay concentration, were prepared by 3-fold dilution in DMSO prior to addition to cells/media.

Compound	EC50 (Hepatitis C virus, 72 h, read-out: NS3 PI EC50) [pM]	EC50 (read-out: NS3 PI EC50)	EC50 (Hepatitis C virus, 72 h, read-out: NS5A Inhibitor EC50) [pM]	EC50 (read-out: NS5A Inhibitor EC50) [pM]
C=C[C@@H]1C[C@]1(NC(=O)[C@@H]1C[C@@H](Oc2ncc(OC)c3ccc(Cl)cc23)CN1C(=O)[C@@H](NC(=O)OC(C)(C)C)C(C)(C)C)C(=O)NS(=O)(=O)C1CC1 [NS3 PI]	825	1200 pM and 705 pM		
COC(=O)N[C@H](C(=O)N1CCCC1c1ncc(-c2ccc(-c3ccc(-c4cnc(C5CCCN5C(=O)[C@@H](NC(=O)OC)C(C)C)[nH]4)cc3)cc2)[nH]1)C(C)C (stereo partly shown) [NS5A Inhibitor]			2	3
